Measured values as given in patent publication US20180153931A1 (Aventis Pharma S.A., priority 2011, published 2018).

Key:
[1] = cisplatin dose 75 mg/m^2; value given with 'previously reported'; cited from earlier work
[2] = system: colon adenocarcinoma C51; assay: Antitumor efficacy against colon adenocarcinoma C51 grafted in BALB/c mice (T/C, T-C, log cell kill)
Experimental: This efficacy may be quantified, for example, by the log10 cell kill, which is determined according to the following formula:
A product is considered to be active if log10 cell kill is greater than or equal to 0.7. A product is considered to be very active if log10 cell kill is greater than or equal to 2.8.
The combination will manifest therapeutic synergy when the log10 cell kill is greater than the value of the log10 cell kill of the best constituent administered alone at its maximum tolerated dose (by at least 1 log cell kill).
The efficacy of the combinations on solid tumors may be determined experimentally in the following manner:
The animals subjected to the experiment, generally mice, are subcutaneously grafted bilaterally with 30 to 60 mg of a tumor fragment on day 0. The animals are implanted with a murine tumor grafted in the syngenic strain of mice of origin of the tumor, or by a rodent or human tumor xenografted in immunocompromized mice. Some days post tumor implantation, mice are randomized according to their body weight to the different groups of treatments and controls. The animals are observed every day. […] The groups are then weighed once or twice a week until the end of the trial.
The tumors are measured 1 to 5 times a week, depending on the tumor doubling time, until the tumor reaches approximately 2 g, or until the animal dies (if this occurs before the tumor reaches 2 g). The animals are necropsied immediately after euthanasia or death.
Cabazitaxel was weighed for each treatment and dissolved in ethanol. Treatment solutions were prepared first by mixing 1 volume of ethanolic stock solution and 1 volume of polysorbate 80, then by adding 18 volumes of glucose 5% in water. Cabazitaxel was administered intravenously on days 5, 12 (or 13) after tumor implantation.
The tumors of treatment (T) and control (C) groups were measured when the median of control group reached approximately 750 to 1400 mg. The median tumor weight of each group was determined.
Antitumor efficacy was determined by calculating the T/C value in percent: T/C (%)=Median tumor weight of the Treated/control×100
A T/C <10% is considered to indicate high antitumor activity and is the level used by NCI to justify further development (Decision Network-2 level, DN-2).
To better quantify the antitumor activity, another end point, the log cell kill, was used:

[3] = Phase I study: pharmacokinetics of cabazitaxel and cisplatin in patients; conditions: cisplatin 75 mg/m^2 followed by cabazitaxel
[4] = Toxicity (drug death, body weight loss, HNTD) in C51 tumor-bearing BALB/c mice; type: in vivo
Excerpt: The animals are observed every day.
Toxicity was declared at dosages inducing≥20% body weight loss or≥10% drug death

[5] = cisplatin alone 2.7 mg/kg/inj IV (total 5.4), days 5, 12
[6] = cabazitaxel alone 7.7 mg/kg/inj IV (total 15.4), days 5, 12
[7] = cabazitaxel alone 12.4 mg/kg/inj IV (total 24.8), days 5, 12
[8] = cabazitaxel alone 20.0 mg/kg/inj IV (total 40.0), days 5, 12
[9] = cabazitaxel alone 32.3 mg/kg/inj IV (total 64.6), days 5, 12

SMILES: N.N.[Cl][Pt][Cl] [cisplatin]
- AUClast, free platinum [1]: 4170 ng·h/mL
- AUClast, total platinum [1]: 45 820 ng.h/mL
- Comments [2, 5]: Active
- T-C in days (750 mg) [2, 5]: 15.1 days
- T/C in % on day 20 [2, 5]: 2%
- log10 cell kill gross [2, 5]: 1.8
- T-C in days (750 mg) ([2]; cisplatin alone […] IV (total 8.6), days 5, 12): 22.1 days
- effect of cabazitaxel on the PK of cisplatin (total and free) [3]: did not appear to alter

SMILES: CO[C@H]1C(=O)[C@]2(C)[C@@H](OC)C[C@H]3OC[C@@]3(OC(C)=O)[C@H]2[C@H](OC(=O)c2ccccc2)[C@]2(O)C[C@H](OC(=O)[C@H](O)[C@@H](NC(=O)OC(C)(C)C)c3ccccc3)C(C)=C1C2(C)C [cabazitaxel, 4α-acetoxy-2α-benzoyloxy-5β,20-epoxy-1β-hydroxy-7β, 10β-dimethoxy-9-oxo-11-taxen-13α-yl (2R,3S)-3-tert-butoxycarbonylamino-2-hydroxy-3-phenylpropionate]
- Comments [2, 6]: Active
- T-C in days (750 mg) [2, 6]: 11.0 days
- T/C in % on day 20 [2, 6]: 5%
- log10 cell kill gross [2, 6]: 1.3
- Comments [2, 7]: Active
- T-C in days (750 mg) [2, 7]: 11.7 days
- T/C in % on day 20 [2, 7]: 3%
- log10 cell kill gross [2, 7]: 1.4
- Comments [2, 8]: HNTD active
- T-C in days (750 mg) [2, 8]: 15.2 days
- T/C in % on day 20 [2, 8]: 0%
- log10 cell kill gross ([2]; cabazitaxel alone 20.0 mg/kg/inj IV (total 40.0), days 5, 12 (HNTD)): 1.8
- Drug death [4, 6]: 0/6
- % Body weight change at nadir ([4]; cabazitaxel alone 7.7 mg/kg/inj IV (total 15.4), days 5, 12, nadir day 9): −6.8%
- Drug death [4, 7]: 0/6
- % Body weight change at nadir ([4]; cabazitaxel alone 12.4 mg/kg/inj IV (total 24.8), days 5, 12, nadir day 9): −8.1%
- Drug death [4, 8]: 0/6
- % Body weight change at nadir ([4]; cabazitaxel alone 20.0 mg/kg/inj IV (total 40.0), days 5, 12, nadir day 19): −14.6%
- Comments [4, 9]: Toxic (6/6 DD)
- Drug death [4, 9]: 6/6
- highest nontoxic dose (HNTD) ([4]; cabazitaxel alone IV, days 5, 12 (total injected dose 40 mg/kg)): 20 mg/kg/inj
